Assay results from patent publication US20050113420A1, “Methionine aminopeptidase inhibitor” (priority 2002, published 2005).

How the values were obtained:
EcMetAP = target: T1, EcMetAP (Escherichia coli, UniProt P0AE18); assay: EcMetAP inhibition, Met-S-C-Phe thiopeptolide/DTNB assay at 412 nm; type: biochemical, E. coli; settings: for IC50: Co-loaded enzyme, estimated IC50 at eight inhibitor concentrations, read-out: IC50(μM) EMetAP
T1 construct: made in house; host or cells: E. coli
From the text: EcMetAP was cloned and overexpressed in E. coli, and purified by (NH4)2SO4 precipitation and Q-Sepharose column separation to give apo-EcMetAP.
(§1) Hydrolysis of the synthesized Met-S-C-Phe thiopeptolide substrate generates a free thiol group, which reacts with excessive DTNB instantly to produce a highly chromogenic product, 3-carboxyl-4-nitrothiophenol (ε412=13,600 M^−1cm^−1). Therefore, the enzymatic reaction catalyzed by MetAP can be continuously monitored at 412 nm on a SpectraMAX 340 microplate reader.
(§2) Employed conventional screening method (Anal Biochem. 2000, 280: 159-65)
(§3) All the compounds were initially screened at the multiple concentrations 2 μg/mL, 20 μg/mL, 100 μg/mL. When the inhibitory activities of the compounds were larger than 50%, their estimated IC50 value were determinated at eight inhibitor concentrations.

hMetAP1 = hMetAP1 (Homo sapiens, UniProt P53582); assay: hMetAP1 inhibition; type: biochemical
From the text: as §1, §2, §3

[1] = target: type 2 methionine aminopeptidase (Homo sapiens, UniProt P50579); settings: covalent binding inhibitors; cited from earlier work
EcMetAP1 = EcMetAP1 (Escherichia coli, UniProt P0AE18); settings: read-out: IC50 EcMetAP1; cited from earlier work
EcMetAP1, sequence (P0AE18 whole entry): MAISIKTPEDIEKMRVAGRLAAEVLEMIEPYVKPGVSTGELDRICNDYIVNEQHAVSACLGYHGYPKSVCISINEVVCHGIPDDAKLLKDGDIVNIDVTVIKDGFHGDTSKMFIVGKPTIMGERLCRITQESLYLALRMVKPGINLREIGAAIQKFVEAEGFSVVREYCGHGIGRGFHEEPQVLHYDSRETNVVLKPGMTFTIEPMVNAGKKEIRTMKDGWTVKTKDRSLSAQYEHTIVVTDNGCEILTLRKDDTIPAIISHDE

T1 sequence (P0AE18 whole entry): as above
type 2 methionine aminopeptidase, sequence (P50579 whole entry): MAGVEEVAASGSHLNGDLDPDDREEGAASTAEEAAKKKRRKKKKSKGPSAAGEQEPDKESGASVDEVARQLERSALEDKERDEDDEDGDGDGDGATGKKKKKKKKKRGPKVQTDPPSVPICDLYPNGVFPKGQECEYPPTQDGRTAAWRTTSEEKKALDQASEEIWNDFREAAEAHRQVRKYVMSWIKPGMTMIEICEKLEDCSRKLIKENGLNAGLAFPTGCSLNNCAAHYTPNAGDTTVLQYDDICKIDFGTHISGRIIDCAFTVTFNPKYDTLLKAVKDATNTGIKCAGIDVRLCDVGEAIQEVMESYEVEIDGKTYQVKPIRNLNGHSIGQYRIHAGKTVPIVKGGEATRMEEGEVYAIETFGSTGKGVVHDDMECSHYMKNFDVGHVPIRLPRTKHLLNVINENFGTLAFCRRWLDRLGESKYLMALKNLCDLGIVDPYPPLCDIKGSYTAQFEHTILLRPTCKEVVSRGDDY

Row | Molecule | IC50 (EcMetAP) | IC50 (hMetAP1) | other results
1 | Nc1ccccc1C(=O)Nc1nccs1 [Compound 7] | – | – | inhibition at 20 µg/mL (EcMetAP; read-out: inhibition of EMetAP): 30%
2 | O=C(Nc1nccs1)c1cc(Cl)ccn1 [Compound 16] | 4.84 µM | – | –
3 | O=C(Nc1ncc(Br)s1)c1ccccn1 [Compound 17] | 6 µM | – | –
4 | O=C(Nc1nccs1)c1ccc2ccccc2n1 [Compound 27] | 51 µM | – | –
5 | COc1ccnc(C(=O)Nc2nccs2)c1 [Compound 30] | 9.22 µM | – | –
6 | O=C(Nc1nccs1)c1ncccc1O [Compound 31] | 2.33 µM | – | –
7 | O=C(Nc1nccs1)c1cccc(CO)n1 [Compound 32] | 5.82 µM | – | –
8 | CC(=O)Oc1cccnc1C(=O)Nc1nccs1 [Compound 34] | 8.2 µM | 29 µM | –
9 | COc1cccnc1C(=O)Nc1nccs1 [Compound 35] | 4.49 µM | 20.9 µM | –
10 | O=C(Oc1cccnc1C(=O)Nc1nccs1)c1ccccc1 [Compound 36] | 1.1 µM | 28.7 µM | –
11 | COc1ccccc1C(=O)Oc1cccnc1C(=O)Nc1nccs1 [Compound 37] | 1.9 µM | 15.4 µM | –
12 | O=C(Oc1cccnc1C(=O)Nc1nccs1)c1cccc([N+](=O)[O-])c1 [Compound 41] | 1.91 µM | 7.3 µM | –
13 | COc1ccccc1/C=C/C(=O)Oc1cccnc1C(=O)Nc1nccs1 [Compound 44] | 1.8 µM | – | –
14 | O=C(Oc1cccnc1C(=O)Nc1nccs1)c1ccc(F)c(Br)c1 [Compound 45] | 1.35 µM | 17.4 µM | –
15 | O=C(Oc1cccnc1C(=O)Nc1nccs1)c1ccc(F)cc1 [Compound 46] | 1.31 µM | 7 µM | –
16 | O=C(Nc1nccs1)c1ncccc1OCc1ccccc1 [Compound 47] | 5.31 µM | 7.8 µM | –
17 | Nc1cccnc1C(=O)Nc1nccs1 [Compound 50] | 5.56 µM | 11 µM | –
18 | O=C(Nc1cccnc1C(=O)Nc1nccs1)c1ccccc1 [Compound 51] | 0.14 µM | – | –
19 | CC(C)(C)OC(=O)Nc1cccnc1C(=O)Nc1nccs1 [Compound 52] | 1.25 µM | – | –
20 | O=C(Nc1cccnc1C(=O)Nc1nccs1)c1ccc(F)cc1 [Compound 53] | 0.05 µM | – | –
21 | Cc1nc(C(=O)Nc2nccs2)cs1 [Compound 55] | 0.4 µM | – | –
22 | CO[C@@H]1[C@H](OC(=O)NC(=O)CCl)CC[C@]2(CO2)[C@H]1[C@@]1(C)O[C@@H]1CC=C(C)C [TNP-470] | – | – | IC50 MetAPs [1]: in the nM range
23 | CO[C@@H]1[C@H](OC(=O)/C=C/C=C/C=C/C=C/C(=O)O)CC[C@]2(CO2)[C@H]1[C@@]1(C)O[C@@H]1CC=C(C)C [fumagillin] | – | – | IC50 MetAPs [1]: in the nM range
24 | AHHPA-Ala-Leu-Val-Phe-OMe | – | – | IC50 (EcMetAP1): 5 µM
